Patent publication US12331051B2 (priority 2021, dated 2025)
Entries after “also recorded” stand apart in the source; their conditions may differ.

Columns and labels:
stress naive mice [1] = test: Open field test (OFT), stress naive mice; format: in vivo, mouse
Experimental: (§1) In brief, stress naive mice were treated (IP injection) with either saline (control) or single dose of the “E559 polymorph” at 0.3, 1, or 3 mg/kg dose levels and were evaluated 24 hours (OFT) and […] after treatment. The OFT was performed described in Example 13. The FST was performed as previously described in (Aguilar-Valles et al., Nature, 2021, 590, p315-319). Briefly FST was performed 24-hour post treatment by placing the mice (one by one) in a 4-liter wide-mouthed flask of 35° C. water. Mice activities were recorded for 6 minutes and assessed for total time the animal remains immobile, a sign of depressive-like behavior. FIG. 25A depicts the study design where female/male mice (n=10/group/sex) were treated by IP injection with the “E559 polymorph” or vehicle (saline) followed by open field and force swim test 24 hours post treatment. FIGS. 25B and 25E represent the total distance travelled in the open field test 24 hours after vehicle or the “E559 polymorph” in female and male mice, respectively. FIGS. 25C and 25F represent the time in the center of the open field by female and male mice, respectively. FIGS. 25D and 25G represent the immobility time during the last 4 minutes of the forced swim test in female and male mice, respectively. Horizontal lines represent the mean±standard error of the mean (S.E.M.) and asterisks indicate statistical significances.

stress naive mice [2] = test: Forced swim test (FST), stress naive mice; format: in vivo, mouse
Experimental: as §1

[3] = test system: 5-HT1 receptor subtypes: 5-HT1A, 1B, 1D, 1E, and 1F; format: cell-based, human; details: FIG. 15, FIG. 16A/B; listed as E559 polymorph
[4] = target: ADRb2 (β2 adrenergic receptor) (Homo sapiens, UniProt P07550); test: BRET-based G protein dissociation assay; format: cell-based
[5] = target: ADRa1B (α1B adrenergic receptor) (Homo sapiens, UniProt P35368); test: BRET-based G protein dissociation assay; format: cell-based
mice = test: Tolerance after repeated dosing, HTR to DOI challenge; format: in vivo, mouse; details: IP once daily 7 days: DOI 10 mg/kg/day, E559 polymorph 3 mg/kg/day; DOI 1 mg/kg challenge 24 hours later
Experimental: To determine if repeated dosing of the “E559 polymorph” can induce tolerance in vivo, HTR experiment described in Examples 2 and 5 was repeated where mice received IP injections of vehicle, DOI (10 mg/kg/day), or the “E559 polymorph” (3 mg/kg/day; once daily for 7 consecutive days) and were then challenged with DOI (1 mg/kg) 24 hours later. Data shown in FIG. 22 are group means±standard deviation for the entire 60 minutes test session. Asterisks indicate statistical significances compared to the Vehicle control (Vehicle was saline).

DVS hygroscopicity = format: physicochemical; details: for DVS (hold at 75% RH) mass increase: crude material, 75% relative humidity, ~5 hr run time
[6] = target: T1, Alpha 2B adrenergic receptor (Homo sapiens, UniProt P18089); test: Functional assay in HEK-293 cells (cAMP); format: cell-based
T1 construct: expressed in transfected cells; host or cells: HEK-293
T1 sequence (P18089 1-450): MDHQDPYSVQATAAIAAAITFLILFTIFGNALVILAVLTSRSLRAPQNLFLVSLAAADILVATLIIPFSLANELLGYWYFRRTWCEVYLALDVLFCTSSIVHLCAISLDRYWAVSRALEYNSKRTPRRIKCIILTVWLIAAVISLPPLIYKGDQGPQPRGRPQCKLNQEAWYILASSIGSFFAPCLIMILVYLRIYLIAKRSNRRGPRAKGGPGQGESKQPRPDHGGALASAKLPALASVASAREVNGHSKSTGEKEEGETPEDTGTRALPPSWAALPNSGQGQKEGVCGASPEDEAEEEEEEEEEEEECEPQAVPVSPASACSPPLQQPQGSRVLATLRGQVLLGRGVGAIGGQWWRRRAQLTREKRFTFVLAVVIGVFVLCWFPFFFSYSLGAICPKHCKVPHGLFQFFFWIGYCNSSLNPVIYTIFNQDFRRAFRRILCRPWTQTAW
Experimental: (§2) Neuro-receptor binding and functional effects of the “E559 polymorph” was examined by analyzing binding affinity [Ki (nM)], functional agonist activity [EC50 (nM)], and functional antagonist activity [IC50 (nM)] against a panel of key receptors in neurophysiological disorders. Binding and functional assays were performed at “E559 polymorph” concentrations of 0.0003, 0.003, 0.01, 0.03, 0.1, 0.3, 1, and 10 μM. In binding assays, cell membrane homogenates, expressing each receptor target, were incubated with the corresponding radio-ligand in absence or presence of several concentration of the “E559 polymorph” compound. The measurement of binding affinity of the “E559 polymorph” is represented in TABLE XIII by Ki (nM) which was calculated as percent inhibition of the binding of a radioactively labeled reference ligand at each receptor. In functional assays the HEK-293 cells expressing each receptor target were suspended in buffer and distribute in microplates and incubated for 30 minutes at room temperature or 37° C. in the presence of buffer alone (basal control), the reference agonist or antagonist, or the “E559 polymorph. Following incubation, the cells were lysed and the appropriate fluorescent probe (Ca2+ flux, cAMP, or IP1) were added for 60 minutes to measure the fluorescence transfer at the appropriate wavelength using a microplate reader. The cellular agonist effect (EC50) was calculated as a percent of control response to a known reference agonist and the cellular antagonist effect (IC50) was calculated as a percent inhibition of control reference agonist response for each receptor.

[7] = target: T2, Beta 2 adrenergic receptor (Homo sapiens, UniProt P07550); test: Functional assay in HEK-293 cells (cAMP); format: cell-based
T2 construct: expressed in transfected cells; host or cells: HEK-293
Experimental: as §2

[8] = target: T3, Beta 1 adrenergic receptor (Homo sapiens, UniProt P08588); test: Functional assay in HEK-293 cells (cAMP); format: cell-based
T3 construct: expressed in transfected cells; host or cells: HEK-293
Experimental: as §2

[9] = target: T4, Serotonin 7 receptor (5-HT7R) (Homo sapiens, UniProt P34969); test: Functional assay in HEK-293 cells (cAMP); format: cell-based
T4 construct: expressed in transfected cells; host or cells: HEK-293
Experimental: as §2

T4 sequence (P34969 whole entry): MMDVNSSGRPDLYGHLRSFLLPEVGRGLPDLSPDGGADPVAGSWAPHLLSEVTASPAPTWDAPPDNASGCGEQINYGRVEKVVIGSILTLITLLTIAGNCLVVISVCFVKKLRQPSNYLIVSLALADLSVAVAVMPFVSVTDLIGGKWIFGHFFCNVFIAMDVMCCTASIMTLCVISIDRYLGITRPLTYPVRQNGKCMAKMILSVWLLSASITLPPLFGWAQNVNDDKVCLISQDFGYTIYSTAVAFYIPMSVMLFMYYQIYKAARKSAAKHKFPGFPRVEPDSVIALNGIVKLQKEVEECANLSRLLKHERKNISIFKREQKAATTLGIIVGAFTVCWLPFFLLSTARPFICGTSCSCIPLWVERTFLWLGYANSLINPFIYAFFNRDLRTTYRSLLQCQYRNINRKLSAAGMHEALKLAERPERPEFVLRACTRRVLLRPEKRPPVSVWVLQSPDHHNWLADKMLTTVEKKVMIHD
T3 sequence (P08588 whole entry): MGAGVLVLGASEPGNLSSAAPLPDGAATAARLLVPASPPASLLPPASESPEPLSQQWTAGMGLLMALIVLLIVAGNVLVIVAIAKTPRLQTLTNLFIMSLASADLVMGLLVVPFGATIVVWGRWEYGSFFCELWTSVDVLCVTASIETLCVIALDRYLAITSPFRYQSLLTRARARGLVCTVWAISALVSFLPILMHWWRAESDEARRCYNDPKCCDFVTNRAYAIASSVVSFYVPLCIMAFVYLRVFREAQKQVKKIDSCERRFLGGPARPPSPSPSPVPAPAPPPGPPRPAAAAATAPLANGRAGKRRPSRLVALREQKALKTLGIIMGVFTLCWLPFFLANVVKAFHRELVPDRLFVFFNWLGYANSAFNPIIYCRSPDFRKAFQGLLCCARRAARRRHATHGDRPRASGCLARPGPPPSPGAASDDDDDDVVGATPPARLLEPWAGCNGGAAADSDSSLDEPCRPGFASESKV
T2 sequence (P07550 whole entry): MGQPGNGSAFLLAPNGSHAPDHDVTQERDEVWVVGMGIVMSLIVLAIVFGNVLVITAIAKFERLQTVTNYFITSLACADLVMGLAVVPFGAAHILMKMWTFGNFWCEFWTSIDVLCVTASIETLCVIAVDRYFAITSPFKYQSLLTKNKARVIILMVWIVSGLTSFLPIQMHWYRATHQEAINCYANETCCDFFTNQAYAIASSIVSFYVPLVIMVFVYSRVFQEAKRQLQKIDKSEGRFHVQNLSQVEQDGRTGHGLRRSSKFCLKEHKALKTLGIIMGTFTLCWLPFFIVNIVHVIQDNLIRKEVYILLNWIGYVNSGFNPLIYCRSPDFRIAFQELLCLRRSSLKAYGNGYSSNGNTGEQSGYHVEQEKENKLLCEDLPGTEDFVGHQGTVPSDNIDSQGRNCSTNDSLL
Sequence of ADRb2 (β2 adrenergic receptor) (P07550 whole entry): as above
Sequence of ADRa1B (α1B adrenergic receptor) (P35368 whole entry): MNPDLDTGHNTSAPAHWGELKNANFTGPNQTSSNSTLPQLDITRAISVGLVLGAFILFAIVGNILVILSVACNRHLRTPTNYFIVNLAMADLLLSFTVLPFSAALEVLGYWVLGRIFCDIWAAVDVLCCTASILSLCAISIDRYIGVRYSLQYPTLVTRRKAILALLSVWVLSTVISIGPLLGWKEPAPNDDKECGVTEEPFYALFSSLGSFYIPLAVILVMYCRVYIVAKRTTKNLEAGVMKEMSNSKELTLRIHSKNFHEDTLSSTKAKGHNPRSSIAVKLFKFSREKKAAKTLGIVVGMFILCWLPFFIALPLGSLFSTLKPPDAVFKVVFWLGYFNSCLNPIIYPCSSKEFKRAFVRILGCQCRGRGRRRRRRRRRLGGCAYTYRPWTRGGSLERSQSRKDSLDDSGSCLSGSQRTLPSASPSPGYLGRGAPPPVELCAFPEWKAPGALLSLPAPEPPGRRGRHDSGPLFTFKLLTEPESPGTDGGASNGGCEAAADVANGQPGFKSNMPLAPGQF

## CCN(CC)C(=O)[C@@H]1C=C2c3cccc4[nH]c(Br)c(c34)C[C@H]2N(C)C1 [E559, (5R, 8R)-2-Bromo-9,10-didehydro-N,N-diethyl-6-methylergoline-8-carboxamide hemi-D-tartrate]
Stress naive mice [1]; female mice, IP 1 mg/kg, 24 hours after treatment
  increase in exploration of the arena center (time in center), maximal effect: 88.18 ± 18.89 s
Stress naive mice [1]; female mice, IP 1 and 3 mg/kg, 24 hours after treatment
  exploration of the arena center: increased exploration of the arena center
Stress naive mice [1]; male mice, IP 0.3, 1 or 3 mg/kg
  increased exploration of the stressogenic area of the open field: not evident in male mice
Stress naive mice [2]; female mice, IP 1 mg/kg
  decrease in immobility: 35.18 ± 10.03 s
Stress naive mice [2]; male mice, IP 1 mg/kg
  decrease in immobility: 27.27 ± 8.226 s
Stress naive mice [2]; male mice, IP 3 mg/kg
  decrease in immobility: 31.36 ± 8.226 s
[3]
  functional activity at 5-HT1 receptor subtypes: moderate to potent agonist across all the 5-HT1 receptor subtypes; also recorded: exhibits the greatest potency (agonism) at 5-HT1F and 5-HT1D receptors
[4]
  EC50: 0.00426 µM
  Kb: 0.0176 µM
[5]
  Kb: 0.0559 µM
mice
  tolerance (tachyphylaxis) after repeated dosing, HTR count on DOI challenge: no tolerance was observed
DVS hygroscopicity; 90% RH exposure, ~24 hr run time, listed as D-Tartrate
  DVS (0-90-0 2 cycles) max water absorbed: absorbed max 7% water
DVS hygroscopicity
  DVS (hold at 75% RH) mass increase: about 3.4%
DVS hygroscopicity; listed as D-Tartrate
  DVS (hold at 75% RH) mass increase: 3.4% mass increase
[6]
  EC50: > 10 µM
  IC50: 3.6 µM
[7]
  EC50: > 10 µM
  IC50: 0.36 µM
[8]
  EC50: > 10 µM
  IC50: 0.87 µM
[9]
  EC50: > 10 µM
  IC50: 0.24 µM
